From patent US20190159457A1, “Combinatorial Compositions of Benzoxaboroles and Biologic Agents” (Boragen, Inc., priority 2017, published 2019)

Columns and labels:
Type in all cases: cell-based
[1] = test system: Sclerotinia sclerotiorum 1980 (Ss1980); assay: Inhibition rate of fungal hyphae growth on PDA petri dish; conditions: Bacillus subtilis −
Experimental: (§1) The synergistic or additive effect of Bacillus subtilis in combination with an oxaborole compound on fungicidal compounds was evaluated by determining the inhibition rate of fungal growth on a petri dish. The oxaborole compound used for the example was BAG8. The inhibition rate was calculated as: inhibition %=(X−Y)/X*100, where X is the diameter of fungal hyphae grown on control without any fungicidal compound or beneficial bacteria.
(§2) The ability of Bacillus subtilis to inhibit growth of the four example fungal pathogens was evaluated by determining the inhibition rate of fungal hyphae on the PDA petri dishes (diameter of 100 mm) with the bacteria (initial bacterial cells: 2000CFU). 0.2 mL of Bacillus subtilis (lx 10^3, 1×10^4, 1×10^5, 1×10^6FU/mL) was spread on the PDA plates. The plates were cultured at 37° C. overnight, followed by inoculating the fresh fungal agar plugs ( 3/16 inch, diameter). The PDA plates with fungal agar plugs were cultured at 25° C. for 4-7 days, and then diameters of hyphae were measured. The inhibition rate was calculated as: inhibition %=(X−Y)/X*100, where X is the diameter of fungal hyphae grown on control without the bacteria. Inhibition rate of 100% means that the fungus cannot grow on PDA medium.
(§3) Testing was performed to compare inhibition performance of BAG8 by itself versus BAG8 in combination with Bacillis subtilis. Initially, the PDA plates (diameter of 100 mm) were prepared with various concentrations (0, 0.2, 0.5, 1, 2, 5 and 10 ug/mL) of the BAG8 compound;
(§4) Then, 0.2 mL of Bacillus subtilis (1×10^4CFU/mL) were spread onto some of the PDA plates with fungicide compounds. The […] Botrytis cinerea, Fusarium oxysporum f sp. Cubense, Mycosphaerella graminicola, and Sclerotinia sclerotiorum.
(§5) The PDA plates with the combined BAG8 and Bacillus subtilis were inoculated with the fresh fungal agar plugs ( 3/16 inch, diameters) and the plates were cultured at 25° C. for 4-7 days, and then diameters of hyphae were measured. The inhibition rate was calculated as: inhibition %=(X−Y)/X*100, where X is the diameter of fungal hyphae grown on control without the bacteria.

[2] = test system: Botrytis cinerea B05.10 (B05.10); assay: as above; conditions: Bacillus subtilis −
Experimental: as §1, §2, §3, §4, §5

[3] = test system: Mycosphaerella graminicola (SLB); assay: as above; conditions: Zymoseptoria tritici, Bacillus subtilis −
Experimental: as §1, §2, §3, §4, §5

[4] = test system: Fusarium oxysporum f sp. cubense tropical race 4 (FOC.TR4); assay: as above; conditions: Bacillus subtilis −
Experimental: as §1, §2, §3, §4, §5

Bacillus subtilis = assay: Toxicity of oxaborole compound on Bacillus subtilis (MIC); conditions: 48 hours, about 37 °C, 1×10^5 CFU/mL
Experimental: The final concentration of Bacillus subtilis was 1×10^5 CFU/mL.
Plates sealed with clear polyester film (VWR) were incubated at a temperature of about 37° C. The progress of Bacillus subtilis growth was monitored at 48 hours.

## OB1OCc2cc(Cl)ccc21 [BAG8, 5-chlorobenzo[c][1,2]oxaborol-1(3H)-ol]
[1]; BAG8 0.2 ug/mL
  inhibition at 0.2 µg/mL: 12%
[1]; BAG8 0.5 ug/mL
  inhibition at 0.5 µg/mL: 48%
[1]; BAG8 1 ug/mL
  inhibition at 1 µg/mL: 94%
[1]; BAG8 2 ug/mL
  inhibition at 2 µg/mL: 98%
[2]; BAG8 0.2 ug/mL
  inhibition at 0.2 µg/mL: 10%
[2]; BAG8 0.5 ug/mL
  inhibition at 0.5 µg/mL: 23%
[2]; BAG8 1 ug/mL
  inhibition at 1 µg/mL: 69%
[2]; BAG8 2 ug/mL
  inhibition at 2 µg/mL: 98%
[3]; BAG8 0.2 ug/mL
  inhibition at 0.2 µg/mL: 6%
[3]; BAG8 0.5 ug/mL
  inhibition at 0.5 µg/mL: 38%
[3]; BAG8 1 ug/mL
  inhibition at 1 µg/mL: 93%
[3]; BAG8 2 ug/mL
  inhibition at 2 µg/mL: 96%
[4]; BAG8 0.2 ug/mL
  inhibition at 0.2 µg/mL: 9%
[4]; BAG8 0.5 ug/mL
  inhibition at 0.5 µg/mL: 47%
[4]; BAG8 1 ug/mL
  inhibition at 1 µg/mL: 95%
[4]; BAG8 2 ug/mL
  inhibition at 2 µg/mL: 94%
Bacillus subtilis
  MIC: > 25 µg/mL
